# Data: PubChem BioAssay AID1963450 (Molecular Pharmacology Branch, DTP, NCI, 2024)
# Several values for one entry are separate records, joined by “and”; a condition that tells them apart may be missing. Identical values can stand only once.
# Tested on: 556581-035-R-J1-PDC complex spheroid growth
# Assay: Anticancer human tumor 556581-035-R-J1-PDC patient-derived ovarian carcinoma cell line growth inhibition [Asc]
# Conditions: for viability, T/C: stronger effect = lower value
# In short: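 Concentration series start at each agent's clinical Cmax, or at 10 microM when none is established, and drop in half-log steps; agents are applied alone or together to complex spheroids built with HUVEC and hMSC.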
# [1] = curve of first compound, second compound 0.01 µM
# [2] = curve of first compound, second compound 0.0316 µM
# [3] = curve of first compound, second compound 0.1 µM
# [4] = curve of first compound, second compound 0.316 µM
# [5] = curve of first compound, second compound 1 µM
# [6] = second compound 0.01 µM, first compound 0.0316 µM
# [7] = second compound 0.01 µM, first compound 0.1 µM
# [8] = second compound 0.01 µM, first compound 0.316 µM
# [9] = second compound 0.01 µM, first compound 1 µM
# [10] = second compound 0.0316 µM, first compound 0.0316 µM
# [11] = second compound 0.0316 µM, first compound 0.1 µM
# [12] = second compound 0.0316 µM, first compound 0.316 µM
# [13] = second compound 0.0316 µM, first compound 1 µM
# [14] = second compound 0.1 µM, first compound 0.0316 µM
# [15] = second compound 0.1 µM, first compound 0.1 µM
# [16] = second compound 0.1 µM, first compound 0.316 µM
# [17] = second compound 0.1 µM, first compound 1 µM
# [18] = second compound 0.316 µM, first compound 0.0316 µM
# [19] = second compound 0.316 µM, first compound 0.1 µM
# [20] = second compound 0.316 µM, first compound 0.316 µM
# [21] = second compound 0.316 µM, first compound 1 µM
# [22] = second compound 1 µM, first compound 0.0316 µM
# [23] = second compound 1 µM, first compound 0.1 µM
# [24] = second compound 1 µM, first compound 0.316 µM
# [25] = second compound 1 µM, first compound 1 µM
# [26] = second compound 0.1 µM, first compound 0.00316 µM
# [27] = second compound 0.1 µM, first compound 0.01 µM
# [28] = second compound 0.316 µM, first compound 0.00316 µM
# [29] = second compound 0.316 µM, first compound 0.01 µM
# [30] = second compound 1 µM, first compound 0.00316 µM
# [31] = second compound 1 µM, first compound 0.01 µM
# 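Further: spheroids exposed to agents for 7 days before viability read.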
smiles,measurement,setting,value
C#Cc1c(F)ccc2cc(O)cc(-c3ncc4c(N5CC6CCC(C5)N6)nc(OCC56CCCN5CC(F)C6)nc4c3F)c12 (centres undefined) + CNC(C)C(=O)NC1CN(S(=O)(=O)c2cccc(S(=O)(=O)N3CCC4CCC(C(=O)NC(c5ccccc5)c5ccccc5)N4C(=O)C(NC(=O)C(C)NC)C3)c2)CCC2CCC(C(=O)NC(c3ccccc3)c3ccccc3)N2C1=O,IC50,"curve of first compound, second compound 0.00316 µM",> 10000 nM
same,IC50,[1],> 10000 nM
same,IC50,[2],> 10000 nM
same,IC50,[3],> 10000 nM
same,IC50,[4],6870 nM
same,IC50,[5],5290 nM
same,"viability, T/C","second compound 0.00316 µM, first compound 0.0316 µM",101%
same,"viability, T/C","second compound 0.00316 µM, first compound 0.1 µM",103%
same,"viability, T/C","second compound 0.00316 µM, first compound 0.316 µM",103%
same,"viability, T/C","second compound 0.00316 µM, first compound 1 µM",99.6%
same,"viability, T/C","second compound 0.00316 µM, first compound 3.16 µM",98%
same,"viability, T/C","second compound 0.00316 µM, first compound 10 µM",86.8%
same,"viability, T/C",[6],105%
same,"viability, T/C",[7],96.6%
same,"viability, T/C",[8],100%
same,"viability, T/C",[9],107%
same,"viability, T/C","second compound 0.01 µM, first compound 3.16 µM",87.6%
same,"viability, T/C","second compound 0.01 µM, first compound 10 µM",71%
same,"viability, T/C",[10],96.7%
same,"viability, T/C",[11],95.9%
same,"viability, T/C",[12],88.5%
same,"viability, T/C",[13],87.7%
same,"viability, T/C","second compound 0.0316 µM, first compound 3.16 µM",87%
same,"viability, T/C","second compound 0.0316 µM, first compound 10 µM",60.5%
same,"viability, T/C",[14],92%
same,"viability, T/C",[15],88.8%
same,"viability, T/C",[16],76.8%
same,"viability, T/C",[17],78%
same,"viability, T/C","second compound 0.1 µM, first compound 3.16 µM",77.9%
same,"viability, T/C","second compound 0.1 µM, first compound 10 µM",62%
same,"viability, T/C",[18],82.6%
same,"viability, T/C",[19],65.4%
same,"viability, T/C",[20],75.3%
same,"viability, T/C",[21],66.4%
same,"viability, T/C","second compound 0.316 µM, first compound 3.16 µM",62.8%
same,"viability, T/C","second compound 0.316 µM, first compound 10 µM",44%
same,"viability, T/C",[22],65.2%
same,"viability, T/C",[23],64.3%
same,"viability, T/C",[24],65.6%
same,"viability, T/C",[25],75.4%
same,"viability, T/C","second compound 1 µM, first compound 3.16 µM",57.9%
same,"viability, T/C","second compound 1 µM, first compound 10 µM",36.3%
CCN1CCN(Cc2ccc(Nc3ncc(F)c(-c4cc(F)c5nc(C)n(C(C)C)c5c4)n3)nc2)CC1 + Cc1c(S(C)(=O)=O)c(-c2cc(F)cc(N3CCN(c4ccc(NS(=O)(=O)c5ccc(NC(CCN6CCC(C(=O)OCCCP(=O)(O)O)CC6)CSc6ccccc6)c(S(=O)(=O)C(F)(F)F)c5)cc4)CC3)c2)c(-c2ccc(Cl)cc2)n1C(C)C,IC50,[3],> 1000 nM
same,IC50,[4],> 1000 nM
same,IC50,[5],556 nM
same,IC50,"curve of first compound, second compound 3.16 µM",782 nM
same,IC50,"curve of first compound, second compound 10 µM",490 nM
same,"viability, T/C",[26],99.3%
same,"viability, T/C",[27],75.3%
same,"viability, T/C",[14],88.9%
same,"viability, T/C",[15],78.1%
same,"viability, T/C",[16],87.8%
same,"viability, T/C",[17],61%
same,"viability, T/C",[28],83.7%
same,"viability, T/C",[29],77.5%
same,"viability, T/C",[18],86.5%
same,"viability, T/C",[19],83.5%
same,"viability, T/C",[20],74.7%
same,"viability, T/C",[21],57.5%
same,"viability, T/C",[30],78.2%
same,"viability, T/C",[31],89.6%
same,"viability, T/C",[22],86.6%
same,"viability, T/C",[23],77.3%
same,"viability, T/C",[24],62%
same,"viability, T/C",[25],37.9%
same,"viability, T/C","second compound 3.16 µM, first compound 0.00316 µM",69.6%
same,"viability, T/C","second compound 3.16 µM, first compound 0.01 µM",86.1%
same,"viability, T/C","second compound 3.16 µM, first compound 0.0316 µM",90.1%
same,"viability, T/C","second compound 3.16 µM, first compound 0.1 µM",66.5%
same,"viability, T/C","second compound 3.16 µM, first compound 0.316 µM",67.6%
same,"viability, T/C","second compound 3.16 µM, first compound 1 µM",45.5%
same,"viability, T/C","second compound 10 µM, first compound 0.00316 µM",68.9%
same,"viability, T/C","second compound 10 µM, first compound 0.01 µM",69.7%
same,"viability, T/C","second compound 10 µM, first compound 0.0316 µM",79.9%
same,"viability, T/C","second compound 10 µM, first compound 0.1 µM",64%
same,"viability, T/C","second compound 10 µM, first compound 0.316 µM",70.6%
same,"viability, T/C","second compound 10 µM, first compound 1 µM",16.7%
COc1c(OCCCN2CCOCC2)ccc2c3n(c(=NC(=O)c4cnc(N)nc4)nc12)CCN3 + CNC(C)C(=O)NC1CN(S(=O)(=O)c2cccc(S(=O)(=O)N3CCC4CCC(C(=O)NC(c5ccccc5)c5ccccc5)N4C(=O)C(NC(=O)C(C)NC)C3)c2)CCC2CCC(C(=O)NC(c3ccccc3)c3ccccc3)N2C1=O,IC50,[1],17.2 nM
same,IC50,[2],22 nM
same,IC50,[3],9.5 nM
same,IC50,[4],14.5 nM
same,IC50,[5],9.84 nM
same,"viability, T/C","second compound 0.01 µM, first compound 0.00316 µM",70.3%
same,"viability, T/C","second compound 0.01 µM, first compound 0.01 µM",58.8%
same,"viability, T/C",[6],37.7%
same,"viability, T/C",[7],35.7%
same,"viability, T/C",[8],19.1%
same,"viability, T/C",[9],12.2%
same,"viability, T/C","second compound 0.0316 µM, first compound 0.00316 µM",64.2%
same,"viability, T/C","second compound 0.0316 µM, first compound 0.01 µM",58.2%
same,"viability, T/C",[10],45.4%
same,"viability, T/C",[11],35.5%
same,"viability, T/C",[12],22.4%
same,"viability, T/C",[13],9.75%
same,"viability, T/C",[26],58.6%
same,"viability, T/C",[27],49.9%
same,"viability, T/C",[14],38.5%
same,"viability, T/C",[15],31.6%
same,"viability, T/C",[16],19.3%
same,"viability, T/C",[17],10.5%
same,"viability, T/C",[28],64.6%
same,"viability, T/C",[29],53.1%
same,"viability, T/C",[18],42.4%
same,"viability, T/C",[19],27.5%
same,"viability, T/C",[20],16.4%
same,"viability, T/C",[21],9.55%
same,"viability, T/C",[30],60.7%
same,"viability, T/C",[31],47.1%
same,"viability, T/C",[22],40.9%
same,"viability, T/C",[23],27.3%
same,"viability, T/C",[24],14.9%
same,"viability, T/C",[25],7.78%
C=CC(=O)N1CCN(c2nc(=O)n(-c3c(C)ccnc3C(C)C)c3nc(-c4c(O)cccc4F)c(F)cc23)C(C)C1 (centres undefined),"viability, T/C",compound 0.0316 µM,111% and 113% and 95.5%
same,"viability, T/C",compound 0.1 µM,88.9% and 109% and 106%
same,"viability, T/C",compound 0.316 µM,104% and 110% and 108%
same,"viability, T/C",compound 1 µM,83.5% and 88.5% and 109%
same,"viability, T/C",compound 3.16 µM,99% and 99.9% and 109%
same,"viability, T/C",compound 10 µM,111% and 76.8% and 107%
same,IC50,curve of compound,> 10000 nM
